Tested on: MV-4-11 cells
Test: Gene expression microarray analysis (Affymetrix PrimeView) and GSEA
Format: cell-based, human
Design: RFU PODN (11730768_x_at) / Fold change /veh PODN (11730768_x_at) / RFU LINC00158 (11744669_a_at) / Fold change /veh LINC00158 (11744669_a_at) / RFU DUSP10 (11751237_a_at) / Fold change /veh DUSP10 (11751237_a_at) / RFU ID3 (11757404_x_at) / Fold change /veh ID3 (11757404_x_at) / RFU PLEKHG5 (11737974_s_at) / Fold change /veh PLEKHG5 (11737974_s_at) / RFU LRRC4B (11730491_at) / Fold change /veh LRRC4B (11730491_at) / RFU GIMAP4 (11747438_a_at) / Fold change /veh GIMAP4 (11747438_a_at) / RFU KRT8 (11758183_x_at) / Fold change /veh KRT8 (11758183_x_at) / RFU CNN1 (11734310_a_at) / Fold change /veh CNN1 (11734310_a_at) / RFU VPS37D (11726825_at) / Fold change /veh VPS37D (11726825_at) / RFU C10orf10 (11716522_x_at) / Fold change /veh C10orf10 (11716522_x_at) / RFU KIR2DL2 /// KIR2DL4 /// KIR2DL5A /// KIR2DL5B /// KIR2DS1 /// KIR2DS2 /// KIR2DS3 /// KIR2DS4 /// KIR3DL3 /// KIR3DL3 /// KIR3DS1 (11738374_at) / Fold change /veh KIR2DL2 /// KIR2DL4 /// KIR2DL5A /// KIR2DL5B /// KIR2DS1 /// KIR2DS2 /// KIR2DS3 /// KIR2DS4 /// KIR3DL3 /// KIR3DL3 /// KIR3DS1 (11738374_at) / RFU C1QL1 (11718748_at) / Fold change /veh C1QL1 (11718748_at) / RFU TMPRSS4 (11747572_a_at) / Fold change /veh TMPRSS4 (11747572_a_at) / RFU HAMP (11756126_x_at) / Fold change /veh HAMP (11756126_x_at) / RFU RNFT2 (11725882_a_at) / Fold change /veh RNFT2 (11725882_a_at) / RFU NR4A2 (11747474_a_at) / Fold change /veh NR4A2 (11747474_a_at) / RFU ABCC12 (11746883_a_at) / Fold change /veh ABCC12 (11746883_a_at) / RFU TMEM136 (11760407_x_at) / Fold change /veh TMEM136 (11760407_x_at) / RFU CLDN22 /// WWC2 (11732394_at) / Fold change /veh CLDN22 /// WWC2 (11732394_at) / RFU HLA-DPB1 (11760878_x_at) / Fold change /veh HLA-DPB1 (11760878_x_at) / RFU SPINT1 (11716480_a_at) / Fold change /veh SPINT1 (11716480_a_at) / RFU GAP43 (11754022_s_at) / Fold change /veh GAP43 (11754022_s_at) / RFU A4GNT (11735810_at) / Fold change /veh A4GNT (11735810_at) / RFU PRB3 (11715151_x_at) / Fold change /veh PRB3 (11715151_x_at) / RFU TUBB4B (11761932_at) / Fold change /veh TUBB4B (11761932_at) / RFU CAPN14 (11732068_a_at) / Fold change /veh CAPN14 (11732068_a_at) / RFU TMCC2 (11721928_a_at) / Fold change /veh TMCC2 (11721928_a_at) / RFU IRGQ (11745062_a_at) / Fold change /veh IRGQ (11745062_a_at) / RFU FAM174B (11720279_a_at) / Fold change /veh FAM174B (11720279_a_at) / RFU TMPRSS4 (11748680_a_at) / Fold change /veh TMPRSS4 (11748680_a_at) / RFU FAM212B (11763350_a_at) / Fold change /veh FAM212B (11763350_a_at) / RFU PLEKHG5 (11743358_a_at) / Fold change /veh PLEKHG5 (11743358_a_at) / RFU ZSCAN30 (11745921_a_at) / Fold change /veh ZSCAN30 (11745921_a_at) / RFU CMKLR1 (11741424_a_at) / Fold change /veh CMKLR1 (11741424_a_at) / RFU LOC101060620 /// MAPK8IP1 (11723275_at) / Fold change /veh LOC101060620 /// MAPK8IP1 (11723275_at) / RFU SPTSSB (11747773_x_at) / Fold change /veh SPTSSB (11747773_x_at) / RFU PRSS12 (11739890_at) / Fold change /veh PRSS12 (11739890_at) / RFU BIN1 (11741810_x_at) / Fold change /veh BIN1 (11741810_x_at) / RFU WNT11 (11732464_a_at) / Fold change /veh WNT11 (11732464_a_at) / RFU C10orf10 (11716521_a_at) / Fold change /veh C10orf10 (11716521_a_at) / RFU C5orf56 (11738089_at) / Fold change /veh C5orf56 (11738089_at) / RFU CYB561 (11721691_x_at) / Fold change /veh CYB561 (11721691_x_at) / RFU ANKRD19P (11752326_a_at) / Fold change /veh ANKRD19P (11752326_a_at) / RFU OR2T12 /// OR2T33 /// OR2T8 (11738714_s_at) / Fold change /veh OR2T12 /// OR2T33 /// OR2T8 (11738714_s_at) / RFU VCAN (11748164_a_at) / Fold change /veh VCAN (11748164_a_at) / RFU JSRP1 (11732532_at) / Fold change /veh JSRP1 (11732532_at) / RFU KRTAP10-11 (11738290_x_at) / Fold change /veh KRTAP10-11 (11738290_x_at) / RFU MYO3A (11730013_a_at) / Fold change /veh MYO3A (11730013_a_at) / RFU EBF3 (11725865_a_at) / Fold change /veh EBF3 (11725865_a_at) / RFU CAMK2N1 (11719241_x_at) / Fold change /veh CAMK2N1 (11719241_x_at) / RFU C5orf56 (11738088_a_at) / Fold change /veh C5orf56 (11738088_a_at) / RFU OLFML3 (11715873_a_at) / Fold change /veh OLFML3 (11715873_a_at) / RFU LOC100653217 /// NTM (11731650_a_at) / Fold change /veh LOC100653217 /// NTM (11731650_a_at) / RFU MAPK11 (11762145_a_at) / Fold change /veh MAPK11 (11762145_a_at) / RFU FIZ1 (11724087_x_at) / Fold change /veh FIZ1 (11724087_x_at) / RFU OASL (11726364_x_at) / Fold change /veh OASL (11726364_x_at) / RFU SOX15 (11748057_x_at) / Fold change /veh SOX15 (11748057_x_at) / RFU CD79A (11719716_a_at) / Fold change /veh CD79A (11719716_a_at) / RFU HIST1H1D (11736915_at) / Fold change /veh HIST1H1D (11736915_at) / RFU CASKIN2 (11723855_a_at) / Fold change /veh CASKIN2 (11723855_a_at) / RFU LOC730098 (11760151_x_at) / Fold change /veh LOC730098 (11760151_x_at) / RFU OR4N2 (11742367_at) / Fold change /veh OR4N2 (11742367_at) / RFU PRRT2 (11749266_a_at) / Fold change /veh PRRT2 (11749266_a_at) / RFU SNX32 (11753110_a_at) / Fold change /veh SNX32 (11753110_a_at) / RFU CDHR5 (11726645_a_at) / Fold change /veh CDHR5 (11726645_a_at) / RFU RCAN1 (11760418_a_at) / Fold change /veh RCAN1 (11760418_a_at) / RFU FAM167A (11723789_a_at) / Fold change /veh FAM167A (11723789_a_at) / RFU FAM26E (11764081_at) / Fold change /veh FAM26E (11764081_at) / RFU ISYNA1 (11749810_s_at) / Fold change /veh ISYNA1 (11749810_s_at) / RFU ACY1 (11761880_at) / Fold change /veh ACY1 (11761880_at) / RFU 11764098_at / Fold change /veh 11764098_at / RFU SAMD14 (11745864_x_at) / Fold change /veh SAMD14 (11745864_x_at) / RFU NPB (11741838_a_at) / Fold change /veh NPB (11741838_a_at) / RFU TMPRSS6 (11731388_a_at) / Fold change /veh TMPRSS6 (11731388_a_at) / RFU KRTAP10-2 (11738614_at) / Fold change /veh KRTAP10-2 (11738614_at) / RFU ARHGAP8 /// PRR5-ARHGAP8 (11727945_x_at) / Fold change /veh ARHGAP8 /// PRR5-ARHGAP8 (11727945_x_at) / RFU KRTAP5-7 /// NADSYN1 (11734609_at) / Fold change /veh KRTAP5-7 /// NADSYN1 (11734609_at) / RFU RASL12 (11751679_a_at) / Fold change /veh RASL12 (11751679_a_at) / RFU CDKN2B (11736163_a_at) / Fold change /veh CDKN2B (11736163_a_at) / RFU PRF1 (11729649_at) / Fold change /veh PRF1 (11729649_at) / RFU, ZNF638 /// ZNF638-IT1 / Fold change vs veh, ZNF638 /// ZNF638-IT1 / RFU, PANK3 / Fold change vs veh, PANK3 / RFU, SH3YL1 / Fold change vs veh, SH3YL1 / RFU, ZEB2 / Fold change vs veh, ZEB2 / RFU, NRIP1 / Fold change vs veh, NRIP1 / RFU, PTTG1IP / Fold change vs veh, PTTG1IP / RFU, CAPN2 / Fold change vs veh, CAPN2 / RFU, MED14 / Fold change vs veh, MED14 / RFU, SNORA58 / Fold change vs veh, SNORA58 / RFU, C1orf63 / Fold change vs veh, C1orf63 / RFU, LRRFIP1 / Fold change vs veh, LRRFIP1 / RFU, NDUFAF7 / Fold change vs veh, NDUFAF7 / RFU, SLC12A2 / Fold change vs veh, SLC12A2 / RFU, IBTK / Fold change vs veh, IBTK / RFU, ESF1 / Fold change vs veh, ESF1 / Fold change vs veh, TMEM50B / RFU, TAOK1 / Fold change vs veh, TAOK1 / RFU, ACBD3 / Fold change vs veh, ACBD3 / RFU, TMA16 / Fold change vs veh, TMA16 / RFU, RWDD3 / Fold change vs veh, RWDD3 / RFU, BCAT1 / Fold change vs veh, BCAT1 / RFU, EDEM3 / Fold change vs veh, EDEM3 / RFU, TMEM33 / Fold change vs veh, TMEM33 / RFU, WDR75 / Fold change vs veh, WDR75 / RFU, AHCTF1 / Fold change vs veh, AHCTF1 / RFU, TFRC / Fold change vs veh, TFRC / RFU, ZDHHC17 / Fold change vs veh, ZDHHC17 / RFU, NOM1 / Fold change vs veh, NOM1 / RFU, ARL8B / Fold change vs veh, ARL8B / RFU, ZBTB11 / Fold change vs veh, ZBTB11 / RFU, TAMM41 / Fold change vs veh, TAMM41 / RFU, KIAA1704 /// LOC100996395 / Fold change vs veh, KIAA1704 /// LOC100996395 / RFU, ING1 / Fold change vs veh, ING1 / RFU, TRMT61B / Fold change vs veh, TRMT61B / RFU, FUBP3 / Fold change vs veh, FUBP3 / RFU, TP53 / Fold change vs veh, TP53 / RFU, TNKS2 / Fold change vs veh, TNKS2 / RFU, ZFP14 / Fold change vs veh, ZFP14 / RFU, ACTR2 / Fold change vs veh, ACTR2 / RFU, PPP3R1 / Fold change vs veh, PPP3R1 / RFU, PIK3R1 / Fold change vs veh, PIK3R1 / RFU, HNRNPA1 / Fold change vs veh, HNRNPA1 / RFU, RNF170 / Fold change vs veh, RNF170 / RFU, ZNF28 / Fold change vs veh, ZNF28 / RFU, RNGTT / Fold change vs veh, RNGTT / RFU, OGT / Fold change vs veh, OGT / RFU, BRD1 / Fold change vs veh, BRD1 / RFU, MARS / Fold change vs veh, MARS / RFU, ZNF655 / Fold change vs veh, ZNF655 / RFU, FAHD1 / Fold change vs veh, FAHD1 / RFU, BDP1 / Fold change vs veh, BDP1 / RFU, LRRCC1 / Fold change vs veh, LRRCC1 / RFU, ARID1A / Fold change vs veh, ARID1A / RFU, ZNF146 / Fold change vs veh, ZNF146 / RFU, ZNF330 / Fold change vs veh, ZNF330 / RFU, GPN3 / Fold change vs veh, GPN3 / RFU, C9orf123 / Fold change vs veh, C9orf123 / RFU, N4BP2L2 / Fold change vs veh, N4BP2L2 / RFU, ARFIP1 / Fold change vs veh, ARFIP1 / RFU, FAM179B / Fold change vs veh, FAM179B / RFU, BCL10 / Fold change vs veh, BCL10 / RFU, UHRF1BP1L / Fold change vs veh, UHRF1BP1L / RFU, BET1 / Fold change vs veh, BET1 / RFU, CNOT2 / Fold change vs veh, CNOT2 / RFU, ZNF268 / Fold change vs veh, ZNF268 / Fold change vs veh, ZNF507 / RFU, DGCR2 / Fold change vs veh, DGCR2 / RFU, WDSUB1 / Fold change vs veh, WDSUB1 / Fold change vs veh, HSP90B1 /// MIR3652 / RFU, ADSS / Fold change vs veh, ADSS / RFU, GK / Fold change vs veh, GK / RFU, ZNF148 / Fold change vs veh, ZNF148 / RFU, TAF9 / Fold change vs veh, TAF9 / RFU, SLC1A5 / Fold change vs veh, SLC1A5 / RFU, SLMO2 / Fold change vs veh, SLMO2 / RFU, ABCC4 / Fold change vs veh, ABCC4 / RFU, LOC101060439 /// RAP1B / Fold change vs veh, LOC101060439 /// RAP1B / RFU, RFX7 / Fold change vs veh, RFX7 / RFU, GTPBP10 / Fold change vs veh, GTPBP10 / RFU, CNEP1R1 / Fold change vs veh, CNEP1R1 / RFU, BIVM-ERCC5 /// ERCC5 / Fold change vs veh, BIVM-ERCC5 /// ERCC5 / RFU, ILF3 / Fold change vs veh, ILF3 / RFU 11762660_at / Fold change /veh 11762660_at / RFU VCAN (11757783_s_at) / Fold change /veh VCAN (11757783_s_at) / RFU DDX43 (11728927_at) / Fold change /veh DDX43 (11728927_at) / RFU KRT8 (11758188_x_at) / Fold change /veh KRT8 (11758188_x_at) / RFU NKD1 (11759106_at) / Fold change /veh NKD1 (11759106_at) / RFU SRD5A1 (11742802_a_at) / Fold change /veh SRD5A1 (11742802_a_at) / RFU TPSAB1 /// TPSB2 (11721975_s_at) / Fold change /veh TPSAB1 /// TPSB2 (11721975_s_at) / RFU GSTM3 (11746129_a_at) / Fold change /veh GSTM3 (11746129_a_at) / RFU IL23R (11737362_x_at) / Fold change /veh IL23R (11737362_x_at) / RFU TMEM51 (11727254_a_at) / Fold change /veh TMEM51 (11727254_a_at) / RFU PIWIL2 (11732686_x_at) / Fold change /veh PIWIL2 (11732686_x_at) / RFU ORM1 (11744905_x_at) / Fold change /veh ORM1 (11744905_x_at) / RFU CCDC152 (11743942_at) / Fold change /veh CCDC152 (11743942_at) / RFU ECM1 (11717891_a_at) / Fold change /veh ECM1 (11717891_a_at) / RFU IL23R (11748794_a_at) / Fold change /veh IL23R (11748794_a_at) / RFU TNFAIP8L3 (11732012_x_at) / Fold change /veh TNFAIP8L3 (11732012_x_at) / RFU MBOAT4 (11741988_at) / Fold change /veh MBOAT4 (11741988_at) / RFU 11764193_at / Fold change /veh 11764193_at / RFU TMEM53 (11763286_at) / Fold change /veh TMEM53 (11763286_at) / RFU MAGEB2 (11727129_at) / Fold change /veh MAGEB2 (11727129_at) / RFU TMEM200A (11744735_a_at) / Fold change /veh TMEM200A (11744735_a_at) / RFU CCDC152 (11751479_a_at) / Fold change /veh CCDC152 (11751479_a_at) / RFU FAM211A (11726209_a_at) / Fold change /veh FAM211A (11726209_a_at) / RFU RGS16 (11746705_a_at) / Fold change /veh RGS16 (11746705_a_at) / RFU VCAN (11755009_s_at) / Fold change /veh VCAN (11755009_s_at) / RFU RHOB (11743442_s_at) / Fold change /veh RHOB (11743442_s_at) / RFU RGS16 (11720943_a_at) / Fold change /veh RGS16 (11720943_a_at) / RFU RGS16 (11720944_at) / Fold change /veh RGS16 (11720944_at) / RFU, VPS4B / Fold change vs veh, VPS4B / RFU, CREB1 / Fold change vs veh, CREB1 / RFU, DNAJC13 / Fold change vs veh, DNAJC13 / RFU, GNAQ / Fold change vs veh, GNAQ / RFU, CDK5R1 / Fold change vs veh, CDK5R1 / RFU, ZRANB3 / Fold change vs veh, ZRANB3 / RFU, CUL4A / Fold change vs veh, CUL4A / RFU, CCNY / Fold change vs veh, CCNY / RFU, UFL1 / Fold change vs veh, UFL1 / RFU, COG3 / Fold change vs veh, COG3 / RFU, DIAPH2 / Fold change vs veh, DIAPH2 / RFU, SKA2 / Fold change vs veh, SKA2 / RFU, AFF3 / Fold change vs veh, AFF3 / RFU, LMF1 / Fold change vs veh, LMF1 / RFU, IPO11 / Fold change vs veh, IPO11 / RFU, DFFB / Fold change vs veh, DFFB / RFU, FOXP1 / Fold change vs veh, FOXP1 / RFU, CARD8 / Fold change vs veh, CARD8 / RFU, STRN3 / Fold change vs veh, STRN3 / RFU, ADK / Fold change vs veh, ADK / RFU, RASSF2 / Fold change vs veh, RASSF2 / RFU, WIPF1 / Fold change vs veh, WIPF1 / RFU, LARP1B / Fold change vs veh, LARP1B / RFU, RASA1 / Fold change vs veh, RASA1 / RFU, RB1 / Fold change vs veh, RB1 / RFU, PPFIA1 / Fold change vs veh, PPFIA1 / RFU, MAT2A / Fold change vs veh, MAT2A / RFU, CCT5 / Fold change vs veh, CCT5 / RFU, WDR92 / Fold change vs veh, WDR92 / RFU, CUX1 / Fold change vs veh, CUX1 / RFU, TTC7A / Fold change vs veh, TTC7A / RFU, TMEM135 / Fold change vs veh, TMEM135 / RFU, DEPTOR / Fold change vs veh, DEPTOR / RFU, CPM / Fold change vs veh, CPM / RFU, DNAJB6 / Fold change vs veh, DNAJB6 / RFU, CACNA2D3 / Fold change vs veh, CACNA2D3 / RFU, DTX4 / Fold change vs veh, DTX4 / RFU, TFCP2 / Fold change vs veh, TFCP2 / RFU, GMCL1 /// GMCL1P1 / Fold change vs veh, GMCL1 /// GMCL1P1 / RFU, AEBP2 / Fold change vs veh, AEBP2 / RFU, SNHG1 /// SNORD22 /// SNORD25 /// SNORD26 /// SNORD27 /// SNORD28 /// SNORD29 /// SNORD31 / Fold change vs veh, SNHG1 /// SNORD22 /// SNORD25 /// SNORD26 /// SNORD27 /// SNORD28 /// SNORD29 /// SNORD31 / Fold change (Aza/veh), C12orf56 (ProbeSet 11735607_a_at) / Fold change (ACY-1035/veh), C12orf56 (ProbeSet 11735607_a_at) / Fold change (Aza/veh), FGFR1OP (ProbeSet 11751329_s_at) / Fold change (ACY-1035/veh), FGFR1OP (ProbeSet 11751329_s_at) / Fold change (Aza/veh), VPS36 (ProbeSet 11739960_a_at) / Fold change (ACY-1035/veh), VPS36 (ProbeSet 11739960_a_at) / RFU SYPL1 (11715823_x_at) / Fold change /veh SYPL1 (11715823_x_at) / RFU IGFBP7 (11715501_s_at) / Fold change /veh IGFBP7 (11715501_s_at) / RFU REEP3 (11722064_at) / Fold change /veh REEP3 (11722064_at) / RFU IGLL1 (11728026_x_at) / Fold change /veh IGLL1 (11728026_x_at): dose or concentration left out as unconfirmed
Settings: MV-4-11 cells, 48 hours

Nc1ncn([C@@H]2O[C@H](CO)[C@@H](O)[C@H]2O)c(=O)n1 [azacitidine]
Fold change /veh KRTAP10-11 (11738290_x_at): 1.14

Reference: paper PMC5218480 (PLoS ONE, 2017)
